These results are taken from patent publication US9572858B2, “Composition for treating and preventing benign prostatic hyperplasia” (GemVax & KAEL Co., Ltd., priority 2013, dated 2017).

For test [1], the system named is BPH induced animal model (sulpiride). Nature of the test: Organ weights in sulpiride BPH induced animal model. It counts as in vivo, Sprague-Dawley male rats. To be noted: rat.
A further test deals with 5α-reductase. Nature of the test: Expression of 5α-reductase in ventral prostate by RT-PCR, BPH induced animal model. Type of test: in vivo, Sprague-Dawley male rats. The following applies: sulpiride 40 mg/kg alone, 60 days, rat. The source says:
As androgen, the most commonly used hormone in the body is testosterone. But the most powerful hormone of androgens related to development of prostate is 5α-dihydrotestosterone (DHT) which is made by combining testosterone and 5α-reductase. […] It is reported that DHT made by hyperprolactinemia make more gaining weight in lateral lobe than dorsal lobe or ventral lobe of prostate. Based on this fact, the experiment using PEP1 according to example 1 only or co-administration with other test material to BPH induced animal model was done as follows. […] Also before administrating the test materials, the body weights of every animal were measured and recorded.
Sulpiride as test material was purchased from Sigma Chemical Co. (St. Louis, Mo., USA) and used for the experiment. […] The dosage of the administration was calculated based on the concentration of 0.5 ml/kg with reflecting the body weight measured every day. […]
After administrating sulpiride with test materials for 60 days and collecting ventral prostate, the effect to the expression of 5α-reductase was measured by using RT-PCR. […] After then RNA was quantified by using spectrophotometer. […] For the control of quantification in electrophoresis, GAPDH whose expression level is not changed by other drugs was used. […]

[2] abbreviates: Sulpiride 40 mg/kg 60 days + Finasteride 5 mg/kg.
[3] abbreviates: Sulpiride 40 mg/kg 60 days alone (BPH induction).

For the compound `CC(C)(C)NC(=O)[C@H]1CC[C@H]2[C@@H]3CC[C@H]4NC(=O)C=C[C@]4(C)[C@H]3CC[C@]12C` [Finasteride, finasteride], in test [1] (setting [2]), the Prostate index is listed as 0.157, the Weight of prostate came to 0.75 ± 0.06 g and the “Weight of seminal vesicle” value came out at 0.49 ± 0.02 g.
With `CCN1CCCC1CNC(=O)c1cc(S(N)(=O)=O)ccc1OC` (stereo not shown) [Sulpiride, sulpiride], in test [1] (setting [3]), the Weight of prostate was 1.59 ± 0.05 g and the “Weight of seminal vesicle” value was 1.23 ± 0.11 g. This compound also yielded a Prostate index in test [1] (Sulpiride 40 mg/kg 60 days alone (BPH induction), equation Final prostate weight/body weight) of 0.303. In addition, the “Level of 5α-reductase expression in ventral prostate (RT-PCR)” value with 5α-reductase was “increased”.
